Results reported in patent US9260439B2, “Dihydropyrrolopyrimidine derivatives” (PFIZER INC., priority 2014, dated 2016).
Where a name gives a salt, the structure may show the parent alone.

molecular target: truncated PI3Kα (p110α/iSH2 p85α) (Homo sapiens (Human), UniProt P42336); test: PI3KA_Act fluorescence polarization kinase assay (Ki); type: biochemical; settings: 1 mM ATP
From the text: 2) p110α-iSH2 p85α Complex (Full Length p110α and p85α iSH2)(“PI3KA_Act”)
Genes encoding for full length p110α and p85α nSH-iSH2=niSH2 (p85a aminoacids 322-600) subunits of PI3Kα complex were subcloned from existing constructs into pFASTBAC Dual vector (Life Technologies, Carlsbad, Calif.) using standard cloning procedures. Gene encoding p110α subunit was subcloned into polyhedrine promoter while gene encoding p85α niSH2 domains was subcloned into p10 promoter. Additionally, Human Rhinovirus 3C Protease (“HRV 3C”) site was introduced between nSH2 and iSH2, replacing aminoacids 431-438 of p85α with […] HRV 3C recognition sequence, using standard QuickChange mutagenesis protocol (Agilent Technologies, CA). Recombinant baculovirus was generated using Bac-to-Bac protocol (Life Technologies, Carlsbad, Calif.). Large scale expression was conducted in Sf21 (Life Technologies, Carlsbad, Calif.) cells at a multiplicity of infection (“MOI”)=1 for 48 hours. Cells were lyzed in 50 mM Tris pH 8.0, 250 mM NaCl, 5% glycerol, 0.25 mM TCEP, and 20 mM imidazole. The p110α-niSH2 p85α complex was purified from clarified supernatant using Immobilized Metalo Affinity Chromatography (“IMAC”). The protein was eluted from the column using 50 mM Tris pH 8.0, 200 mM NaCl, 0.25 mM TCEP, and 200 mM imidazole. Following elution p110α-niSH2 p85α complex was dialyzed against 4 liters of 50 mM Tris pH 8.0, 200 mM NaCl, 0.25 mM TCEP, and 40 mM imidazole in the presence of PreScission Protease (1:70 molar ratio of Protease to Protein) and TEV protease (1:40 molar ratio protease to protein) for 16 hours at 4° C. The protein was further purified using reverse IMAC to remove cleaved histidine tag and contaminants captured during initial IMAC purification. The mixture of p110α-iSH2 p85α complex and cleaved nSH2 was recovered in reverse IMAC 40 mM imidazole flow through and 60 mM imidazole wash fractions. Those fractions were pulled together and loaded on Superdex 200 26/60 SEC column equilibrated in 25 mM Tris, pH 8.0, 100 mM NaCl, 2% glycerol, and 2 mM TCEP. Following SEC, chromatography peak fractions containing p110α-iSH2 p85α complex were pulled and concentrated to 4.3 mg/mL. Purity and integrity of the complex was confirmed using LCMS, analytical SEC and SDS-PAGE (sodium dodecyl sulfate polyacrylamide gel electrophoresis) analysis.
The biochemical assays of kinase activity of full-length PI3Kα (full-length p110α/p85a) or truncated PI3Kα (p110α/iSH2 p85a) were conducted using a fluorescence polarization format similar to the procedure of Yuan J., et al., (2011) “PF-04691502, a Potent and Selective Oral Inhibitor of PI3K and mTOR Kinases with Antitumor Activity”, Mol Cancer Ther. 10, 2189-2199. The enzymatic reactions were conducted in 50 μL volumes in 96-well plates. The reactions contained human recombinant PI3Kα (2 nM full-length p110α/p85α or 0.5 nM p110α/iSH2 p85) and 30 μM phosphatidylinositol 4,5-bisphosphate (“PIP2”) (Cayman Chemical Company, Ann Arbor, Mich.) and were sonicated for 1 minute prior to adding PI3Kα enzyme (PI3KA_Act or PI3KA_FL), DMSO or test compound (12-point 3-fold serial dilution, 3 μM top dose, 2° A) DMSO final concentration), 5 mM MgCl2, 50 mM HEPES pH 7.4, 150 mM NaCl, 1 mM DTT ((2S,3S)-1,4-bis(sulfanyl)butane-2,3-diol), and 0.05% 3-[(3-cholamidopropyl)dimethylammonio]-1-propanesulfonate (“CHAPS”). […] The reactions were incubated for 30 min at room temperature, stopped with EDTA pH 8 (10 mM final concentration). In a detection plate, 15 μL of detector/probe mixture, containing 480 nM GST-Grp1 PH domain protein (University of Dundee, Dundee, UK) and 12 nM carboxytetramethylrhodamine (“TAMRA”)-tagged fluorescent phosphatidylinositol (3,4,5)-triphosphate (“PIP3”) (Echelon Biosciences, Inc., Salt Lake City, Utah) in assay buffer, was mixed with 15 μL of kinase reaction mixture. The plate was shaken for 30 minutes and fluorescence polarization values were measured on an LJL Analyst HT plate reader (Molecular Devices, Sunnyvale, Calif.). […]

Chain of truncated PI3Kα (p110α/iSH2 p85α) (P42336 whole entry, the tested form may be a part): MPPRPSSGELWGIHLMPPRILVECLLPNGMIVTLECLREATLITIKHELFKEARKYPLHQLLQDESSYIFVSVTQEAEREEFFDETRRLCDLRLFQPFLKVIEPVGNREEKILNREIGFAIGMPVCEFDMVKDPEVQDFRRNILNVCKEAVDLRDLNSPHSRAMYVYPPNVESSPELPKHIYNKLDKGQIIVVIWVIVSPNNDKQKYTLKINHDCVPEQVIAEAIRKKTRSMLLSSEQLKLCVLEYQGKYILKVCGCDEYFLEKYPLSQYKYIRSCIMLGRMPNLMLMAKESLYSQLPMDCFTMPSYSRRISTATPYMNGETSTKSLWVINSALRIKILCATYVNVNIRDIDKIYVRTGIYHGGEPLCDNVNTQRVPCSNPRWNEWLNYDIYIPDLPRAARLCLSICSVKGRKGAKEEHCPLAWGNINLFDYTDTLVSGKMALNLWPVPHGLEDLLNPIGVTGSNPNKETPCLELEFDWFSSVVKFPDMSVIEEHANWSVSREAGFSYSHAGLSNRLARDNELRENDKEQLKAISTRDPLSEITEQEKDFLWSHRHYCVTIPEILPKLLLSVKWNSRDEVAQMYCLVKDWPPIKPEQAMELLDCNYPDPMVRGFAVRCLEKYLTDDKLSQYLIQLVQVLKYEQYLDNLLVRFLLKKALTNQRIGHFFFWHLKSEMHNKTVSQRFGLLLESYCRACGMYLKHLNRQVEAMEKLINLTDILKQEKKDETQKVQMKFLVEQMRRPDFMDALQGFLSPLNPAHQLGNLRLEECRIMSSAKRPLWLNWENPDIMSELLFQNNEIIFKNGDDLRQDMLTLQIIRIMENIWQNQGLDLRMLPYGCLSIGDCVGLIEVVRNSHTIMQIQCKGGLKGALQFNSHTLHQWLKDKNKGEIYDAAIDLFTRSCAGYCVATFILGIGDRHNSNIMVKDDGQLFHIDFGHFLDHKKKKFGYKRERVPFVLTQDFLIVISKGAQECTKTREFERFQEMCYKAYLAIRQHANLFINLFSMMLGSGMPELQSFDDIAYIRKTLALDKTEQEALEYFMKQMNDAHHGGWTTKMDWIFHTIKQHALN

Structure (SMILES)	PI3KA_Act Ki	Ki
CNS(=O)(=O)N1CCC(C)(N2CCc3c(-c4cnc(N)nc4)nc(N4CCOCC4)nc32)C1 (racemic) [Example 162]	<18 pM	
CC(C)(C)OC(=O)N1CCCC(C)(N2CCc3c(-c4cnc(N)nc4)nc(N4CCOCC4)nc32)C1 (racemic) [Example 434, tert-butyl 3-[4-(2-aminopyrimidin-5-yl)-2-(morpholin-4-yl)-5,6-dihydro-7H-pyrrolo[2,3-d]pyrimidin-7-yl]-3-methylpiperidine-1-carboxylate]	220 pM	
CS(=O)(=O)N1CC2CC2(N2CCc3c(-c4cnc(N)nc4)nc(N4CCOCC4)nc32)C1 (racemic) [Example 435, 5-{7-[3-(methylsulfonyl)-3-azabicyclo[3.1.0]hex-1-yl]-2-(morpholin-4-yl)-6,7-dihydro-5H-pyrrolo[2,3-d]pyrimidin-4-yl}pyrimidin-2-amine]	132 pM	
C[C@]1(N2CCc3c(-c4cnc(N)nc4)nc(N4CCOCC4)nc32)CCN(C2CCNC2=O)C1 (single isomer, unassigned) [Example 7]	91 pM	
CCC(C)(O)C(=O)N1CC[C@](C)(N2CCc3c(-c4cnc(N)nc4)nc(N4CCOCC4)nc32)C1 (single isomer, unassigned) [Example 273]	87 pM	
CCC(C)(O)C(=O)N1CC[C@](C)(N2CCc3c(-c4cnc(N)nc4)nc(N4CCOCC4)nc32)C1 (single isomer, unassigned) [Example 274]	145 pM	
CC(C(N)=O)C(=O)N1CC[C@](C)(N2CCc3c(-c4cnc(N)nc4)nc(N4CCOCC4)nc32)C1 (single isomer, unassigned) [Example 316]	19 pM	
C[C@@]1(N2CCc3c(-c4cnc(N)nc4)nc(N4CCOCC4)nc32)CCN(C(=O)C(O)C2CC2)C1 (single isomer, unassigned) [Example 326]	48 pM	
C[C@@]1(N2CCc3c(-c4cnc(N)nc4)nc(N4CCOCC4)nc32)CCN(C(=O)C(O)C2CC2)C1 (single isomer, unassigned) [Example 327]	28 pM	
CC1(C(=O)N2CC[C@](C)(N3CCc4c(-c5cnc(N)nc5)nc(N5CCOCC5)nc43)C2)CCCO1 (single isomer, unassigned) [Example 376]	90 pM	
CN1CCC(N2CC[C@](C)(N3CCc4c(-c5cnc(N)nc5)nc(N5CCOCC5)nc43)C2)C1=O (single isomer, unassigned) [Example 426]	51 pM	
CN1CCC(N2CC[C@](C)(N3CCc4c(-c5cnc(N)nc5)nc(N5CCOCC5)nc43)C2)C1=O (single isomer, unassigned) [Example 427]	73 pM	
C[C@]1(N2CCc3c(-c4cnc(N)nc4)nc(N4CCOCC4)nc32)CCN(C2CCCNC2=O)C1 (single isomer, unassigned) [Example 428]	67 pM	
C[C@]1(N2CCc3c(-c4cnc(N)nc4)nc(N4CCOCC4)nc32)CCN(C2CCCNC2=O)C1 (single isomer, unassigned) [Example 429]	160 pM	
CS(=O)(=O)N1C[C@H]2C[C@@H]1[C@@H]2N1CCc2c(-c3cnc(N)nc3)nc(N3CCOCC3)nc21 (single isomer, unassigned) [Example 439]		1510 pM
CS(=O)(=O)N1C[C@H]2C[C@@H]1[C@@H]2N1CCc2c(-c3cnc(N)nc3)nc(N3CCOCC3)nc21 (single isomer, unassigned) [Example 440]		178 pM
C[C@H]1COCCN1c1nc(-c2cnc(N)nc2)c2c(n1)N([C@@]1(C)CCN(C3CCNC3=O)C1)CC2 (single isomer, unassigned) [Example 514]	68 pM	
C[C@H]1COCCN1c1nc(-c2cnc(N)nc2)c2c(n1)N([C@@]1(C)CCN(C3CCNC3=O)C1)CC2 (single isomer, unassigned) [Example 515]	<81 pM	
CNC(=O)N1CC[C@@](C)(N2CCc3c(-c4cnc(N)nc4)nc(N4CCOCC4)nc32)C1 [Example 2, (3R)-3-[4-(2-aminopyrimidin-5-yl)-2-(morpholin-4-yl)-5,6-dihydro-7H-pyrrolo[2,3-d]pyrimidin-7-yl]-N,3-dimethylpyrrolidine-1-carboxamide]	160 pM	
Nc1ncc(-c2nc(N3CCOC[C@H]3CO)nc3c2CCN3C2CC(F)(F)C2)cn1 [Example 3, {(3R)-4-[4-(2-aminopyrimidin-5-yl)-7-(3,3-difluorocyclobutyl)-6,7-dihydro-5H-pyrrolo[2,3-d]pyrimidin-2-yl]morpholin-3-yl}methanol]	118146 pM	
CC(C)(N)C(=O)N1CC[C@](C)(N2CCc3c(-c4cnc(N)nc4)nc(N4CCOCC4)nc32)C1 [Example 4, 2-amino-1-{(3S)-3-[4-(2-aminopyrimidin-5-yl)-2-(morpholin-4-yl)-5,6-dihydro-7H-pyrrolo[2,3-d]pyrimidin-7-yl]-3-methylpyrrolidin-1-yl}-2-methylpropan-1-one]	23 pM	
C[C@H]1COCCN1c1nc(-c2cnc(N)nc2)c2c(n1)N([C@@]1(C)CCN(C(=O)C(C)(C)N)C1)CC2 [Example 5, 2-amino-1-[(3S)-3-{4-(2-aminopyrimidin-5-yl)-2-[(3S)-3-methylmorpholin-4-yl]-5,6-dihydro-7H-pyrrolo[2,3-d]pyrimidin-7-yl}-3-methylpyrrolidin-1-yl]-2-methylpropan-1-one]	24 pM	

same assay, conditions: 1 mM ATP, hydrochloride

Structure (SMILES)	PI3KA_Act Ki
CC1(C(=O)N2CC[C@](C)(N3CCc4c(-c5cnc(N)nc5)nc(N5CCOCC5)nc43)C2)CCCO1 (single isomer, unassigned) [Example 375, hydrochloride]	43 pM
CC1(N2CCc3c(-c4cnc(N)nc4)nc(N4CCOCC4)nc32)CCCNC1 (single isomer, unassigned) [Example 431, 5-[7-(3-methylpiperidin-3-yl)-2-(morpholin-4-yl)-6,7-dihydro-5H-pyrrolo[2,3-d]pyrimidin-4-yl]pyrimidin-2-amine hydrochloride]	14544 pM
CC1(N2CCc3c(-c4cnc(N)nc4)nc(N4CCOCC4)nc32)CCCNC1 (single isomer, unassigned) [Example 432, 5-[7-(3-methylpiperidin-3-yl)-2-(morpholin-4-yl)-6,7-dihydro-5H-pyrrolo[2,3-d]pyrimidin-4-yl]pyrimidin-2-amine hydrochloride]	11739 pM
C[C@H]1COCCN1c1nc(-c2cnc(N)nc2)c2c(n1)N([C@@]1(C)CCN(C(=O)C3(N)CCOC3)C1)CC2 (single isomer, unassigned) [Example 502, hydrochloride]	64 pM
C[C@H]1COCCN1c1nc(-c2cnc(N)nc2)c2c(n1)N([C@@]1(C)CCN(C(=O)C3(N)CCOC3)C1)CC2 (single isomer, unassigned) [Example 503, hydrochloride]	91 pM
C[C@H]1COCCN1c1nc(-c2cnc(N)nc2)c2c(n1)N(C1(C)CCCNC1)CC2 (single isomer, unassigned) [Example 517, hydrochloride]	9319 pM
C[C@H]1COCCN1c1nc(-c2cnc(N)nc2)c2c(n1)N(C1(C)CCCNC1)CC2 (single isomer, unassigned) [Example 518, hydrochloride]	11285 pM
